Measured values published in paper PMC11354392, “Molecular Characteristics of the Malate Dehydrogenase (MDH) Gene Family in Spirometra mansoni (Cestoda: Diphyllobothriidea)” (International Journal of Molecular Sciences, 2024).

Tests used:
rSmMDH1 [1] = tested on: T1, rSmMDH1; test: absorbance […] nm, Lineweaver-Burk; format: biochemical, Spirometra mansoni; conditions: apparent
T1 construct: gene SmMDH1

rSmMDH1 [2] = biological target: T1, rSmMDH1; test: absorbance […] nm, Lineweaver-Burk secondary plot of […]/Vmax; format: biochemical, Spirometra mansoni; conditions: forward reaction (oxaloacetate reduction, NADH); 100 mM Tris-HCl pH 7.5, 37 °C; reversible, binds enzyme-substrate complex

SMILES: NC(=O)c1ccc[n+]([C@@H]2O[C@H](COP(=O)(O)OP(=O)(O)OC[C@H]3O[C@@H](n4cnc5c(N)ncnc54)[C@H](O)[C@@H]3O)[C@@H](O)[C@H]2O)c1 [NAD]
- Km (rSmMDH1 [1]; reverse reaction, malic acid co-substrate (methods print lactate), 100 mM Tris-HCl pH 8.6, 37 °C): 1950 µM

SMILES: NC(=S)c1cccnc1 [thionicotinamide]
- Ki (rSmMDH1 [2]): 144 µM

SMILES: O=C(O)CC(=O)C(=O)O [oxaloacetic acid]
- Km (rSmMDH1 [1]; forward reaction, NADH co-substrate, 100 mM Tris-HCl pH 7.5, 37 °C, tested 1-10 mM): 63500 µM

SMILES: O=C(O)C[C@H](O)C(=O)O [malic acid]
- Km (rSmMDH1 [1]; reverse reaction, NAD co-substrate, 100 mM Tris-HCl pH 8.6, 37 °C): 1190 µM

SMILES: NC(=O)C1=CN([C@@H]2O[C@H](COP(=O)(O)OP(=O)(O)OC[C@H]3O[C@@H](n4cnc5c(N)ncnc54)[C@H](O)[C@@H]3O)[C@@H](O)[C@H]2O)C=CC1 [NADH]
- Km (rSmMDH1 [1]; forward reaction, oxaloacetate co-substrate, 100 mM Tris-HCl pH 7.5, 37 °C): 1750 µM
